Values of other authors as cited in patent US7446116B2, “Montelukast amantadine salt” (Synthon BV, priority 2006, dated 2008).
Structures can show the parent of a compound that is named as a salt.

Columns and labels:
[1] = system: human patient; conditions: doses of at least 200 mg per day
[2] = system: rats; conditions: oral administration

SMILES	safety for a human patient [1]	toxicity, expressed as LD50 value [2]
NC12CC3CC(CC(C3)C1)C2 [amantadine hydrochloride]	safe and nontoxic	–
CC(C)(C)N [tert.butyl amine]	–	44 mg/kg
